Measured values taken from BindingDB's records for doi:10.7270/Q20000JS (Johns Hopkins Ion Channel Center, 2010).

Target: Potassium voltage-gated channel subfamily KQT member 2 (Rattus norvegicus, UniProt O88943)
Assay: KCNQ2 channel potentiators, dose response, mechanism study for KCNQ2 potentiator project, cell-based, automated electrophysiology (AID 2603)

Potassium voltage-gated channel subfamily KQT member 2, sequence (O88943 whole entry): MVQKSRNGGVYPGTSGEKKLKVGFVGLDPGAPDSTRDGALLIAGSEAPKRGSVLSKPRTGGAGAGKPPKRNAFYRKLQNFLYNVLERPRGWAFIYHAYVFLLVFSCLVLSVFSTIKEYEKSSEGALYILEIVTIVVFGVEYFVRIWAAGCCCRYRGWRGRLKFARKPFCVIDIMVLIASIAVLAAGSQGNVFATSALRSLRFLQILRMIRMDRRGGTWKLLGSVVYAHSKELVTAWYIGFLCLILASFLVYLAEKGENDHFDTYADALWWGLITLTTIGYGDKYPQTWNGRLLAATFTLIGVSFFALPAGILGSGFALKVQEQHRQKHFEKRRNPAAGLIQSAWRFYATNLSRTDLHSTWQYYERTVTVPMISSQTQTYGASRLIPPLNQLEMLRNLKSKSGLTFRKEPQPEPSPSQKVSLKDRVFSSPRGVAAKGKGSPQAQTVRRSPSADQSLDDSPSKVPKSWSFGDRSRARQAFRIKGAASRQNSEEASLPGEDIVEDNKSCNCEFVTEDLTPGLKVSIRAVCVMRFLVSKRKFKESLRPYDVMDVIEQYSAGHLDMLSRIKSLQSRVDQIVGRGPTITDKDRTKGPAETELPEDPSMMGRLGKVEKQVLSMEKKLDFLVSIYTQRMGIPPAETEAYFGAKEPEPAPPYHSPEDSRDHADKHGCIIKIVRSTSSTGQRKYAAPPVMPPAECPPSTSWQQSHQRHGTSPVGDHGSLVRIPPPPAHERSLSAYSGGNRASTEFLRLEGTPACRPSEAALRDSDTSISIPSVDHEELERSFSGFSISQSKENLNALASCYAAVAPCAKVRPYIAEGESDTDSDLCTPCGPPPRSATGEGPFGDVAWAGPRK

| SMILES | EC50 |
| --- | --- |
| CC(C)N1C(=O)C(=NNc2ccc(Cl)c(C(=O)O)c2)c2ccccc21 [MLS000773916] | 3.7 µM |
| CC1=NC(=O)NC(c2cccc(O)c2)C1C(=O)OC1CCCCCCC1 (configuration not stated) [SMR000111748] | 537 µM |
